Measurements from patent publication US20050215641A1, “Compositions comprising reverse isomers of conjugated linoleic acid” (priority 2004, published 2005).
Marks after values point to notes of the source that are not given here.

How the values were obtained:
cows = assay: Milk fat depression model, continuous abomasal infusion of CLA isomer emulsions (Example 3); assay type: in vivo; conditions: for Yield Fat / Concentration Fat: abomasal infusion of emulsion, 1 g/L CLA, over four days; for Yield Fat: mean treatment effects; for Concentration Fat: milk; for inhibitory effects on lipid synthesis: milk fat depression model, general statement
Experimental: When CLA is prepared with alkaline isomerization of linoleic acid, the isomers t10,c12 and c9,t11 are formed. Further, trans, trans isomers of 9,11 and 10,12 can be formed catalytically at high temperatures, as well as t8,c10 and c11,t13. […] This example describes, for the first time, a biological effect of the c10,t12 isomer of CLA.
Emulsions of three different isomer preparations (see Table 2; t10,c12; t10,t12; and a mixture of t10, c12; c10,t12 and t10,t12 isomers; prepared as described in Example 1) were prepared essentially the same way as described by Chouinard, et al., J. Nutr. 129:1579 [1999]. The concentration of CLA in these emulsions was 1 g/L and the emulsions were administered continuously to cows at the rate of 3 1/24 h over four days as described by Chouinard, et al., J. Nutr. 129:1579 [1999]. Briefly, the emulsions were continuously infused into the abomasum via infusion lines that pass through the rumen cannula and omasal canal and peristaltic pumps. Milk was sampled daily and concentration of milk fat was determined by infrared analysis using Milko-Scan 133B analyser (Foss Electric, Hillerød, Denmark). […] Table 3 presents the mean treatment effects on intake and milk production.

[1] = Peroxide values (PV) by ferric thiocyanate method after storage; assay type: physicochemical; conditions: after storage in open glass
From the text: The present invention also contemplates stabilization of the c10,t12, c10,c12, t9,c11 and/or c9,c11 compositions by preventing oxidation of the compounds. The present invention is not limited to any one mechanism. Indeed, an understanding of the mechanism of the invention is not necessary to produce the composition or perform the methods of the present invention. […] After storage in open glass, the PV of CLA was 32; in comparison, the value for linoleic acid was 370.

lactating Holstein cows = assay: Milk fat depression model, abomasal infusion of CLA supplements, 4x4 Latin square (Example 4); assay type: in vivo; conditions: for inhibitory effects on lipid synthesis: milk fat depression model, general statement; for Milk fat yield reduced / Milk fat % / Milk fat kg/d: 5 g/d of isomer of interest; for Milk fat yield reduced: 5 d; for Milk fat yield reduced / transfer efficiency of specific CLA isomers within respective treatment groups: P<0.001; for Milk fat % / Milk fat kg/d: average of day 4 and 5 of supplementation; for transfer efficiency of specific CLA isomers within respective treatment groups: abomasal infusion 5 g/d
From the text: Four rumen-fistulated lactating Holstein cows (149±18 DIM) were randomly assigned in a 4×4 Latin square experiment. Treatments were abomasal infusions of 1) ethanol (control), 2) trans-10, cis-12 CLA supplement (positive control), 3) trans-9, trans-11 CLA supplement, and 4) trans-9, cis-11 CLA supplement. The trans-10, cis-12 and trans-9, trans-11 CLA supplements were of high purity (>90%), whereas the trans-9, cis-11 CLA supplement consisted mainly of 3 CLA isomers: trans-9, cis-11 (32%), cis-9, trans-11 (29%) and trans-9, trans-11 (17%). CLA supplements supplied 5 g/d of the CLA isomer of interest and the daily dose was provided by infusion at 6 h intervals. Treatment periods were 5 d in length with a 7 d washout interval. Milk yield and DMI were unaffected by treatment (P>0.05). Milk fat yield was reduced 27% by the trans-10, cis-12 CLA treatment and 15% by the trans-9, cis-11 CLA treatment, while the trans-9, trans-11 CLA treatment had no effect (P<0.001). Milk protein content and yield were reduced by the trans-9, trans-11 CLA treatment only (P<0.01). The transfer efficiency of specific CLA isomers within respective treatment groups was 22% for trans-10, cis-12 CLA, 21% for trans-9, trans-11 CLA and 46% for trans-9, cis-11 CLA (P<0.001). […] The data are summarized in Tables 4 and 5 and FIGS. 3 and 4.

CCCCC/C=C/C=C/CCCCCCCCC(=O)O [t10, t12, t10,t12 CLA]
Yield Fat (cows): 694^a g/day | Concentration Fat (cows): 7.2^a g/kg | effect on the concentration of milk fat (cows; purified form): did not have any effect

CCCCC/C=C/C=C\CCCCCCCCC(=O)O [c10,t12, c10,t12 octadecadienoic acid]
inhibitor of lipid synthesis (cows; concluded from the effect of the isomer mixture versus purified t10,c12): stronger inhibitor of lipid synthesis than t10,c12 | inhibitory effects on lipid synthesis (cows): strong inhibitory effects

CCCCC/C=C\C=C/CCCCCCCCC(=O)O [c10,c12, c10,c12 octadecadienoic acid]
inhibitory effects on lipid synthesis (cows): strong inhibitory effects

CCCCC/C=C\C/C=C\CCCCCCCC(=O)O [linoleic acid]
peroxide values (PV) [1]: 370

CCCCCC/C=C\C=C\CCCCCCCC(=O)O [t9,c11, t9,c11 octadecadienoate]
inhibitory effects on lipid synthesis (lactating Holstein cows): strong inhibitory effects

CCCCC/C=C\C=C\CCCCCCCCC(=O)O [t10, c12, t10,c12 octadecadienoic acid]
Yield Fat (cows): 573^ab g/day | Concentration Fat (cows): 29.1^b g/kg | Milk fat yield reduced (lactating Holstein cows): 27% | Milk fat % (lactating Holstein cows): 2.54^d % | Milk fat kg/d (lactating Holstein cows): 0.541^c kg/d | transfer efficiency of specific CLA isomers within respective treatment groups (lactating Holstein cows): 22%

CCCCCC/C=C\C=C/CCCCCCCC(=O)O [c9,c11]
inhibitory effects on lipid synthesis (lactating Holstein cows): strong inhibitory effects

CCCCCC/C=C/C=C/CCCCCCCC(=O)O [t9, t11 CLA]
Milk fat yield reduced (lactating Holstein cows): no effect | Milk fat % (lactating Holstein cows): 4.03^a % | Milk fat kg/d (lactating Holstein cows): 0.770^a kg/d | transfer efficiency of specific CLA isomers within respective treatment groups (lactating Holstein cows): 21%
